The results in this text go back to the supplement of paper PMC10307832.

Holding throughout (assay): relative viability (nuclei count vs DMSO), 5 days (fraction); higher = more cells survive
Compound in test [1]: C1CCC(CC1)N(CCNCCC2=C3C(=C(C=C2)O)NC(=O)CO3)C(=O)CCNCCC4=CC(=C(C=C4)Cl)Cl [AZ505] + CC(C)C[C@H](NC(=O)[C@H](Cc1ccccc1)NC(=O)c1cnccn1)B(O)O [Bortezomib] (partner 0.002 µM)
The essentials: (§1)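 Relative viability equals treated-well nuclei counts divided by vehicle-well nuclei counts. Counts came from 4× images of lung cancer cell lines grown in 1536-well plates for 5 days after pin-tool dosing on the day after seeding. Dosing used one drug alone or a fixed anchor-drug dose plus five library-drug doses (not always all listed) in √10 steps, and values are medians of duplicate plates.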

Compound in test [2]: C1CCC(CC1)N(CCNCCC2=C3C(=C(C=C2)O)NC(=O)CO3)C(=O)CCNCCC4=CC(=C(C=C4)Cl)Cl [AZ505] + COc1cccc2cc(-c3nc([C@H]4CC[C@H](C(=O)O)CC4)n4ncnc(N)c34)[nH]c12 [OSI-027] (partner 0.5 µM)
The gist of the method: as §1

Compound in test [3]: C1CCC(CC1)N(CCNCCC2=C3C(=C(C=C2)O)NC(=O)CO3)C(=O)CCNCCC4=CC(=C(C=C4)Cl)Cl [AZ505] + N=C(N)NC(=N)NCCc1ccccc1 [Phenformin] (partner 250 µM)
The essentials:
as §1

Compound in test [4]: Cn1c(=O)n(-c2ccc(C(C)(C)C#N)cc2)c2c3cc(-c4cnc5ccccc5c4)ccc3ncc21 [Dactolisib] + COc1cc2c(Oc3ccc(NC(=O)C4(C(=O)Nc5ccc(F)cc5)CC4)cc3F)ccnc2cc1OCCCN1CCOCC1 [Foretinib] (partner 0.25 µM)
The gist of the method:
as §1

Turning to UMC-11, the relative viability is 0.661 in test [1] (first compound 0.08 µM); 0.872 in test [1] (first compound 0.253 µM); 0.68 in test [1] (first compound 0.8 µM); 0.734 in test [1] (first compound 2.53 µM); 0.939 in test [1] (first compound 8 µM); 0.413 in test [2] (first compound 0.08 µM). Also, the relative viability in test [2] (first compound 0.253 µM) was 0.53; in test [2] (first compound 0.8 µM) it was 0.452; in test [2] (first compound 2.53 µM), 0.476; in test [2] (first compound 8 µM) it was 0.492; in test [3] (first compound 0.08 µM), 0.305; in test [3] (first compound 0.253 µM), 0.323. For the same cell line, the relative viability in test [3] (first compound 0.8 µM) was found to be 0.328; in test [3] (first compound 2.53 µM), 0.328; in test [3] (first compound 8 µM) it was 0.325; in test [4] (first compound 0.002 µM) it was 1.04; in test [4] (first compound 0.006325 µM) it was 0.882; in test [4] (first compound 0.02 µM) it was 0.671. In addition, the results for the relative viability in test [4] (first compound 0.06325 µM) and in test [4] (first compound 0.2 µM) were 0.273 and 0.242, respectively.
